Experimental data from patent US20070081991A1, “Compositions and methods for modulation of immune responses” (Pepgen Corporation, priority 2001, published 2007).
Entries after “also recorded” stand apart in the source; their conditions may differ.

How the values were obtained:
Type in all cases: cell-based, human
HLA-E = HLA-E stabilization assay (cell surface expression by flow cytometry); settings: K562 cells transfected with HLA-E*01033 or HLA-E*0101; overnight incubation with peptide at 26° C.
Protocol: Synthetic peptides, purchased from Research Genetics, were dissolved in PBS. The peptides used were B7sp ([…]) (SEC ID NO: 3), hsp60sp ([…]) (SEC ID NO: 2), B7 R5V ([…]) (SEC ID NO: 14), hsp60 V5R ([…]) ([…]), and P18I10 ([…]) (SEC ID NO: 113) (all from Research Genetics, Huntsville, Ala.). Cells and their HLA-E transfected derivatives were incubated with synthetic peptides (3-300 μM) at 26° C. for 15-20 hours in serum-free AIM-V medium (GibcoBRL, Paisley Scotland) at a concentration of 1-3.10^6 cells/ml. Cells were then harvested, washed in PBS, stained with mAbs and analyzed by flow cytometry. Cells were subjected to stress by allowing them to grow at increasing cell density.
To test whether the hsp60-derived peptides were able to bind HLA-E, stabilized HLA-E cell surface expression was stabilized with the different synthetic peptides, by overnight incubation at 26° C. For this purpose MHC class I-deficient cell lines such as 721.221 (which lack HLA-A, -B, -C, and -G, but express HLA-E and -F intracellularly), as well as K562 cells transfected with HLA-E*01033 (K562-E*01033) or HLA-E*0101 were employed. The 721.221 cells and HLA-E transfected, but not untransfected, K562 cells express low levels of HLA-E at the cell surface during normal cell growth.

[1] = tested on: CD94/NKG2A+ NK cell lines Nishi and NKL; assay: NK cell-mediated cytotoxicity, 2 h 51Cr release, peptide-loaded K562-E*01033 targets; settings: targets incubated overnight at 26° C. with peptide; effectors NKL and Nishi
Protocol: K562-E*01033 cells were incubated with the different peptides at 26° C. for 15-20 hours, and then tested in 2 h 51Cr release assays. In order to ensure that the levels of HLA-E with a protective peptide, and not the HLA-E levels as such, provided the protective capacity we kept the non-protective peptides, but omitted the B7sp, during the assays. (a) Killing of K562-E*01033 cells by NKL (left) or Nishi (right) after incubation with […], 300 mM hsp60sp, or 30 mM B7sp. 50 mM of P18I10 control peptide and hsp60sp was also included during the assays. Data from an E:T ratio of 30:1 is shown. The figure represents the mean of at least three experiments. Error bars indicate standard error of the mean. (b) Killing of K562-E*01033 cells by NKL (left panel) or Nishi (right panel) incubated over night with 30 mM 7sp, 300 mM P18I10 (pCtrl), 300 mM B7 R5V, 300 mM hsp60sp, or 300 mM hsp60 V5R. 50 mM of all peptides, except B7sp, were included during the assay. Peptide concentrations were chosen according to FIG. 5c. The figure represents the mean of at least three experiments. Error bars indicate standard error of the mean. (c) HLA-E cell surface expression by K562-E*01033 after the assay. A cold target preparation was prepared in parallel as in (a) and (b), and then stained with DX17 mAb (anti-HLA class I), followed by RPE-conjugated goat-anti-mouse IgG. One representative example out of more than 5 is shown. Note that, as in (a) and (b), 50 mM of all peptides, except for B7sp, was present during the time of the assay, explaining the lower HLA-E expression with B7sp compared to Hsp60sp, Hsp60 V5R and B7 R5V. (d) Killing of K562-E*01033 cells by Nishi after incubation for 30 min at room temperature with 0.1 mM B7sp and increasing amounts of competing peptides (hsp60sp, hsp60.4, B7 R5V and P18I10). All the peptides were kept throughout the assay
NK cell-mediated cytotoxicity was measured using a 2 hours standard ^51Cr radioisotope release assay. Briefly, target cells were incubated for 15-20 hours at 26° C. with the various peptides at concentrations ranging from 1-300 μM, and then labeled with ^51Cr. Peptides were washed away prior to setting up the assays, except in some experiments where the non-protective hsp60sp, B7 R5V and hsp60 V5R was kept throughout the assay to assure higher levels of HLA-E expression, as compared to targets incubated with the protective B7sp. In mAb blocking experiments, cells were preincubated with mouse serum, or an irrelevant isotype matched antibody to block Fc-receptors. Blocking of either target or effector cells with mAbs was performed at 4° C., and the antibodies were also included during the assays. […]

[2] = tested on: NKL and Nishi effector cells; assay: Killing of K562-E*01033 cells grown at increasing cell density (stress), 2 h 51Cr release; settings: peptide added in the assay; 100 mM B7sp (FIG. 6b legend)
Protocol: (a) Killing of K562-E*01033 cells (grown at increasing cell densities as in FIG. 3b) by NKL in a 2 h 51Cr release assay. (b) Same experimental setting as above, in the presence of 100 mM B7sp. Closed circles-high density; open squares-medium density; closed triangles-low density. (c) HLA-E expression on the K562-E*01033 cells after culture at increasing cell density.
Briefly, cell cultures were set up at the cell concentration of 0.2.10^6 cells/ml at different time points for a period of up to 6 days. At the end point, cell concentration and viability were determined by trypan blue exclusion. The expression of cell-surface HLA class I molecules was assessed by flow cytometry. Cell cultures with viability higher than 90% and at three different densities were selected as targets for cytotoxic assays. HLA-E Tetramer Production
K562-E*01033 cells grown at different densities were tested as targets in a 2 hours chromium release assay with NKL and Nishi as effector cells. […] The data also subbest that HLA-E expression induced by stress is not sufficient to protect from NK cell mediated killing. […] Therefore it is unlikely that the increased killing after cellular stress observed in some of the experiments herein is due to an increased expression of MIC-A or MIC-B. Up-regulation of other activating ligands, e.g., ULBP's, may also be responsible for the increase in killing.

[3] = tested on: NK cells of PB and SF mononuclear cells of RA patients; assay: NK cell cytokine production on contact with peptide stabilized K562 HLA-E*01033 cells (intracellular staining, flow cytometry); settings: K562 HLA-E*01033 stabilized with various doses of peptide; 1:1 cell ratio, 4 hours
Protocol: HLA-E expression was stabilized on K562 cells transfected with HLA-E*01033, by incubation with various doses of HLA-B7 signal sequence derived peptide ([…]) (SEQ ID NO: 3). PB and SF mononuclear cells (MC) of RA patients were then incubated with peptide stabilized K562 cells (1:1 cell ratio) for 4 hours in the presence of GolgiStop™. Cells were surface stained for CD3 and CD56 and thereafter stained intracellularly for IFN-gamma or TNF-alpha. Analysis was performed by flow cytometry.

Sequence: VMAPRTVLL [B7sp]
- HLA-E cell surface expression (stabilization) (HLA-E): stabilization of HLA-E
- protection of K562-E*01033 cells from killing by NK cells [1]: clear protection from killing
- rescue of stressed (high density) K562-E*01033 cells from killing [2]: could be rescued from killing by addition of B7sp peptide; also recorded: stressed cells were protected simply by adding the protective B7sp peptide
- NK cell IFN-gamma production [3]: sufficient to inhibit NK cell IFN-gamma and TNF-alpha cytokine production
- NK cell TNF-alpha production [3]: sufficient to inhibit NK cell IFN-gamma and TNF-alpha cytokine production
